A value given as a limit tells only on which side of the number the result lay.

Here are results for 10 compounds from patent US8383094B2, “Hepatitis C virus inhibitors” (Bristol-Myers Squibb Company, priority 2008, dated 2013).

One test relates to HCV 1b genotype. The test can be described thus: HCV Replicon assay (HCV-neo replicon cells, wild-type). It is filed as cell-based. The note with it: HCV 1b genotype replicon; range class A-D; read-out: 1b EC50 (in μM or range). For orientation: In antiviral work, replicon cells carry a viral genome segment that copies itself.
In the case of `CCc1sc(Cl)nc1C(=O)N1CCC[C@H]1C(=O)Nc1ccc(C#Cc2ccc(NC(=O)[C@@H]3CCCN3C(=O)c3nc(Cl)sc3CC)cc2)cc1` [Example D36.1, (2S,2′S)-N,N′-(4,4′-(ethyne-1,2-diyl)bis(4,1-phenylene))bis(1-(2-chloro-5-ethylthiazole-4-carbonyl)pyrrolidine-2-carboxamide)], the EC50 (as a rule, the concentration at which the effect is half-maximal) was 0.1 to 0.999 µM.

As to `CN1Cc2ccccc2C1C(=O)N1CCC[C@H]1C(=O)Nc1ccc(C#Cc2ccc(NC(=O)[C@@H]3CCCN3C(=O)C3c4ccccc4CN3C)cc2)cc1` (stereo partly drawn) [VN40, (2S,2′S)-N,N′-(1,2-ethynediyldi-4,1-phenylene)bis(1-((2-methyl-2,3-dihydro-1H-isoindol-1-yl)carbonyl)-2-pyrrolidinecarboxamide)], the EC50 lay within 0.00457 to 0.099 µM.

The test is the same for the next values; noted with them: Hepatitis C virus, HCV 1b genotype replicon; range class A-D; read-out: 1b EC50 (in μM or range).
For the compound `CN(C)C(C)(C(=O)N1CCC[C@H]1C(=O)Nc1ccc(C#Cc2ccc(NC(=O)[C@@H]3CCCN3C(=O)C(C)(c3ccccc3)N(C)C)cc2)cc1)c1ccccc1` (stereo partly drawn) [VN37, (2S,2′S)-N,N′-(1,2-ethynediyldi-4,1-phenylene)bis(1-(2-(dimethylamino)-2-phenylpropanoyl)-2-pyrrolidinecarboxamide)], the EC50 was less than 0.00457 µM.

For `O=C(Nc1ccc(C#Cc2ccc(NC(=O)[C@@H]3CCCN3C(=O)[C@@H](O)c3ccccc3)cc2)cc1)[C@@H]1CCCN1C(=O)[C@@H](O)c1ccccc1` [Example D41, (2S,2′S)-N,N′-(1,2-ethynediyldi-4,1-phenylene)bis(1-((2S)-2-hydroxy-2-phenylacetyl)-2-pyrrolidinecarboxamide)], the EC50 is less than 0.00457 µM.

As to `O=C(Nc1ccc(C#Cc2ccc(NC(=O)[C@@H]3CCCN3C(=O)c3nc(Cl)cc4ccccc34)cc2)cc1)[C@@H]1CCCN1C(=O)CC1CC1` [Example D38, (2S)-1-((3-Chloro-1-isoquinolinyl)carbonyl)-N-(4-((4-((((2S)-1-(cyclopropylacetyl)-2-pyrrolidinyl)carbonyl)amino)phenyl)ethynyl)phenyl)-2-pyrrolidinecarboxamide], the EC50 lay within 0.00457 to 0.099 µM.

Regarding `O=C(Nc1ccc(C#Cc2ccc(NC(=O)[C@@H]3CCCN3C(=O)[C@@H](c3ccccc3)N3CCOCC3)cc2)cc1)[C@@H]1CCCN1C(=O)[C@@H](c1ccccc1)N1CCOCC1` [VN13, (2S,2′S)-N,N′-(1,2-ethynediyldi-4,1-phenylene)bis(1-((2R)-2-(4-morpholinyl)-2-phenylacetyl)-2-pyrrolidinecarboxamide)], the EC50 is less than 0.00457 µM.

`O=C(Nc1ccc(C#Cc2ccc(NC(=O)[C@@H]3CCCN3C(=O)C(c3ccccc3)N3CCC(O)CC3)cc2)cc1)[C@@H]1CCCN1C(=O)C(c1ccccc1)N1CCC(O)CC1` (stereo partly drawn) [VN20, (2S,2′S)-N,N′-(1,2-ethynediyldi-4,1-phenylene)bis(1-((4-hydroxy-1-piperidinyl)(phenyl)acetyl)-2-pyrrolidinecarboxamide)]: the EC50 fell in the range of 0.00457 to 0.099 µM.

For the compound `O=C(Nc1ccc(C#Cc2ccc(NC(=O)[C@@H]3CCCN3C(=O)[C@H]3CCCO3)cc2)cc1)[C@@H]1CCCN1C(=O)[C@H]1CCCO1` [Example D26, (2S,2′S)-N,N′-(1,2-ethynediyldi-4,1-phenylene)bis(1-((2R)-tetrahydro-2-furanylcarbonyl)-2-pyrrolidinecarboxamide)], the EC50 lay in the range of 0.00457 to 0.099 µM.

Turning to `COc1cccc2c(C(=O)N3CCC[C@H]3C(=O)Nc3ccc(C#Cc4ccc(NC(=O)[C@@H]5CCCN5C(=O)CC5CC5)cc4)cc3)nc(Cl)cc12` [Example D47, (2S)-1-((3-Chloro-5-methoxy-1-isoquinolinyl)carbonyl)-N-(4-((4-((((2S)-1-(cyclopropylacetyl)-2-pyrrolidinyl)carbonyl)amino)phenyl)ethynyl)phenyl)-2-pyrrolidinecarboxamide], the EC50 lay in the range of 0.00457 to 0.099 µM.

As for `CC(=O)N1CCC[C@H]1C(=O)Nc1ccc(C#Cc2ccc(NC(=O)[C@@H]3C[C@@H](OC(C)(C)C)CN3C(=O)OCc3ccccc3)cc2)cc1` [Example D7, Benzyl (2S,4R)-2-((4-((4-((((2S)-1-acetyl-2-pyrrolidinyl)carbonyl)amino)phenyl)ethynyl)phenyl)carbamoyl)-4-tert-butoxy-1-pyrrolidinecarboxylate], the EC50 lay within 1 to 10 µM.
